Results taken from paper PMC3446843 (Toxicological Sciences, 2012).

What was measured:
[1] = test system: isolated mouse liver mitochondria; assay: Loss of mitochondrial transmembrane potential; assay type: biochemical; conditions: for ΔΨm loss EC20: 20% of maximal loss of ΔΨm (50µM mClCCP = 100%), 30-min incubation
[2] = test system: isolated mouse liver mitochondria, complex I; assay: Oxygen consumption through complex I; conditions: for O2 cons CI EC20: inhibition of oxygen consumption, malate + glutamate + ADP, 2µM rotenone = 100%

SMILES	ΔΨm loss EC20 [1] [µM]	also measured
CC(=O)Nc1ccc(O)cc1 [Acetaminophen]	> 200	O2 cons CI EC20 [2]: > 400 µM
CC(=O)Oc1ccccc1C(=O)O [Acetylsalicylic acid]	335.5	O2 cons CI EC20 [2]: 149.8 µM
CCCN(CCC)C(=O)Cc1c(-c2ccc(Cl)cc2)nc2ccc(Cl)cn12 [Alpidem]	83.7	O2 cons CI EC20 [2]: 29.6 µM
NC12CC3CC(CC(C3)C1)C2 [Amantadine]	261.2	O2 cons CI EC20 [2]: > 400 µM
Nc1c(Br)cc(Br)cc1CN[C@H]1CC[C@H](O)CC1 [Ambroxol]	> 200	O2 cons CI EC20 [2]: > 200 µM
CCCCc1oc2ccccc2c1C(=O)c1cc(I)c(OCCN(CC)CC)c(I)c1 [Amiodarone]	2.6	
CC1(C)S[C@@H]2[C@H](NC(=O)[C@H](N)c3ccc(O)cc3)C(=O)N2[C@H]1C(=O)O [Amoxicillin]	> 400	
CC1(C)S[C@@H]2[C@H](NC(=O)[C@H](N)c3ccccc3)C(=O)N2[C@H]1C(=O)O [Ampicillin]	> 400	
Cc1cc(=O)n(-c2ccccc2)n1C [Antipyrine]	300.0	O2 cons CI EC20 [2]: > 400 µM
CC(C)c1c(C(=O)Nc2ccccc2)c(-c2ccccc2)c(-c2ccc(F)cc2)n1CC[C@@H](O)C[C@@H](O)CC(=O)O [Atorvastatin]	4.3	
O=C(O)CCCC[C@@H]1SC[C@@H]2NC(=O)N[C@@H]21 [Biotin]	> 400	O2 cons CI EC20 [2]: > 400 µM
CC(=O)Oc1ccc(C(c2ccc(OC(C)=O)cc2)c2ccccn2)cc1 [Bisacodyl]	312.4	O2 cons CI EC20 [2]: 52.5 µM
CCCCN1CCCCC1C(=O)Nc1c(C)cccc1C (centres unmarked) [Bupivacaine]	258.2	O2 cons CI EC20 [2]: > 800 µM
CS(=O)(=O)OCCCCOS(C)(=O)=O [Busulfan]	483.1	
O=C(/C=C/c1ccc(O)c(O)c1)c1ccc(O)cc1O [Butein]	> 200	
Cn1c(=O)c2c(ncn2C)n(C)c1=O [Caffeine]	> 400	O2 cons CI EC20 [2]: > 400 µM
COc1cc(CNC(=O)CCCC/C=C/C(C)C)ccc1O [Capsaicin]	275.0	O2 cons CI EC20 [2]: 15.7 µM
NC(=O)N1c2ccccc2C=Cc2ccccc21 [Carbamazepine]	66.9	effect on oxygen consumption (in words) ([2]; with malate/glutamate and/or succinate): increased oxygen consumption
C=CC1=C(C(=O)O)N2C(=O)[C@@H](NC(=O)/C(=N\OCC(=O)O)c3csc(N)n3)[C@H]2SC1 [Cefixime]	> 400	O2 cons CI EC20 [2]: 216.8 µM
O=C(O)CCCc1ccc(N(CCCl)CCCl)cc1 [Chlorambucil]	> 200	O2 cons CI EC20 [2]: 140.9 µM
O=C(O)c1cn(C2CC2)c2cc(N3CCNCC3)c(F)cc2c1=O [Ciprofloxacin]	> 400	
Clc1ccccc1C(c1ccccc1)(c1ccccc1)n1ccnc1 [Clotrimazole]	23.9	
O=c1ccc2ccccc2o1 [Coumarin]	0.9	
Cc1nc(Nc2ncc(C(=O)Nc3c(C)cccc3Cl)s2)cc(N2CCN(CCO)CC2)n1 [Dasatinib]	20.8	

SMILES	ΔΨm loss EC20 [1] [µM]	also measured
COc1cccc2c1C(=O)c1c(O)c3c(c(O)c1C2=O)C[C@@](O)(C(C)=O)C[C@@H]3O[C@H]1C[C@H](N)[C@H](O)[C@H](C)O1 [Daunorubicin]		O2 cons CI EC20 [2]: 10.9 µM
CC1=NS(=O)(=O)c2cc(Cl)ccc2N1 [Diazoxide]	> 200	
O=C(O)c1cc(-c2ccc(F)cc2F)ccc1O [Diflunisal]	17.9	
CCN(CC)C(=S)SSC(=S)N(CC)CC [Disulfiram]	12.6	
COc1cccc2c1C(=O)c1c(O)c3c(c(O)c1C2=O)C[C@@](O)(C(=O)CO)C[C@@H]3O[C@H]1C[C@H](N)[C@H](O)[C@H](C)O1 [Doxorubicin]	8.9	
Clc1ccc(COC(Cn2ccnc2)c2ccc(Cl)cc2Cl)cc1 (centres unmarked) [Econazole]	13.3	
O=C(O)c1ccccc1Nc1cccc(C(F)(F)F)c1 [Flufenamic acid]	42.5	
CC(C)C(=O)Nc1ccc([N+](=O)[O-])c(C(F)(F)F)c1 [Flutamide]	27.0	
COc1cc2ncnc(Nc3ccc(F)c(Cl)c3)c2cc1OCCCN1CCOCC1 [Gefitinib]	9.6	
O=c1c(-c2ccc(O)cc2)coc2cc(O)cc(O)c12 [Genistein]	150.6	
CNC(C)C1CCC(N)C(OC2C(N)CC(N)C(OC3OCC(C)(O)C(NC)C3O)C2O)O1 (centres unmarked) [Gentamicin]	49.0	
CCC1=C(C)CN(C(=O)NCCc2ccc(S(=O)(=O)NC(=O)N[C@H]3CC[C@H](C)CC3)cc2)C1=O [Glimepiride]	94.6	
Cc1cc2c(C(C)C)c(O)c(O)c(C=O)c2c(O)c1-c1c(C)cc2c(C(C)C)c(O)c(O)c(C=O)c2c1O [Gossypol]	1.0	
CC(C)=CCC[C@]1(C)[C@@H](CC=C(C)C)C[C@@]2(CC=C(C)C)C(=O)[C@]1(C(=O)C(C)C)C(=O)C(CC=C(C)C)=C2O [Hyperforin]	0.1	
Cc1ccc(NC(=O)c2ccc(CN3CCN(C)CC3)cc2)cc1Nc1nccc(-c2cccnc2)n1 [Imatinib]	25.7	
CN(C)CCCN1c2ccccc2CCc2ccccc21 [Imipramine]	74.8	
COc1ccc2c(c1)c(CC(=O)O)c(C)n2C(=O)c1ccc(Cl)cc1 [Indomethacin]	443.2	
NNC(=O)c1ccncc1 [Isoniazide]	504.6	
O=C(O)c1nn(Cc2ccc(Cl)cc2Cl)c2ccccc12 [Lonidamine]	138.1	
Cc1cccc(Nc2ccccc2C(=O)O)c1C [Mefenamic acid]	49.7	
Sc1ncnc2nc[nH]c12 [Mercaptopurine]	406.9	
CO[C@@]12[C@H](COC(N)=O)C3=C(C(=O)C(C)=C(N)C3=O)N1C[C@@H]1N[C@@H]12 [Mitomycin C]	> 200	
O=C1c2c(O)ccc(O)c2C(=O)c2c(NCCNCCO)ccc(NCCNCCO)c21 [Mitoxantrone]	7.00	
Cc1c(O)cccc1C(=O)N[C@@H](CSc1ccccc1)[C@H](O)CN1C[C@H]2CCCC[C@H]2C[C@H]1C(=O)NC(C)(C)C [Nelfinavir]	6.3	concentrations collapsing the ΔΨm and altering the mitochondrial respiration [1]: lower than 50 μM

SMILES	ΔΨm loss EC20 [1] [µM]	also measured
CO[C@]12C[C@@H](COC(=O)c3cncc(Br)c3)CN(C)[C@@H]1Cc1cn(C)c3cccc2c13 [Nicergoline]	82.6	
Cc1cn(-c2cc(NC(=O)c3ccc(C)c(Nc4nccc(-c5cccnc5)n4)c3)cc(C(F)(F)F)c2)cn1 [Nilotinib]	11.5	
CS(=O)(=O)Nc1ccc([N+](=O)[O-])cc1Oc1ccccc1 [Nimesulide]	10.1	
CCCCC1C(=O)N(c2ccccc2)N(c2ccccc2)C1=O [Phenylbutazone]	140.2	
CC[C@H](C)C(=O)O[C@H]1C[C@H](O)C=C2C=C[C@H](C)[C@H](CC[C@@H](O)C[C@@H](O)CC(=O)O)[C@H]21 [Pravastatin]	> 200	
CCCc1cc(=O)[nH]c(=S)[nH]1 [Propylthiouracil]	391.5	
Oc1ccc(/C=C/c2cc(O)cc(O)c2)cc1 [Resveratrol]	395.4	
Cc1cc2nc3c(=O)[nH]c(=O)nc-3n(C[C@H](O)[C@H](O)[C@H](O)CO)c2cc1C [Riboflavin]		O2 cons CI EC20 [2]: 182.8 µM
CO[C@H]1/C=C/O[C@@]2(C)Oc3c(C)c(O)c4c(O)c(c(/C=N/N5CCN(C)CC5)c(O)c4c3C2=O)NC(=O)/C(C)=C\C=C\[C@H](C)[C@H](O)[C@@H](C)[C@@H](O)[C@@H](C)[C@H](OC(C)=O)[C@@H]1C [Rifampicin]	> 800	
CC(C)c1nc(CN(C)C(=O)N[C@H](C(=O)N[C@@H](Cc2ccccc2)C[C@H](O)[C@H](Cc2ccccc2)NC(=O)OCc2cncs2)C(C)C)cs1 [Ritonavir]	24.8	concentrations collapsing the ΔΨm and altering the mitochondrial respiration [1]: lower than 50 μM
CC[C@H]1OC(=O)[C@H](C)[C@@H](O[C@H]2C[C@@](C)(OC)[C@@H](O)[C@H](C)O2)[C@H](C)[C@@H](O[C@@H]2O[C@H](C)C[C@H](N(C)C)[C@H]2O)[C@](C)(O)C[C@@H](C)/C(=N\OCOCCOC)[C@H](C)[C@@H](O)[C@]1(C)O [Roxithromycin]	244.8	
CNC(=O)c1cc(Oc2ccc(NC(=O)Nc3ccc(Cl)c(C(F)(F)F)c3)cc2)ccn1 [Sorafenib]	0.5	
[H]/N=C(/N)N[C@H]1[C@H](O)[C@@H](O)[C@H](O[C@@H]2O[C@@H](C)[C@](O)(C=O)[C@H]2O[C@@H]2O[C@@H](CO)[C@H](O)[C@@H](O)[C@@H]2NC)[C@@H](N/C(N)=N\[H])[C@@H]1O [Streptomycin]	78.8	
CCN(CC)CCNC(=O)c1c(C)[nH]c(/C=C2\C(=O)Nc3ccc(F)cc32)c1C [Sunitinib]	23.2	
CC/C(=C(\c1ccccc1)c1ccc(OCCN(C)C)cc1)c1ccccc1 [Tamoxifen]	2.9	
CN(C/C=C/C#CC(C)(C)C)Cc1cccc2ccccc12 [Terbinafine]	12.5	
Clc1ccccc1CN1CCc2sccc2C1 [Ticlopidine]	50.5	
Cc1ccc(C(=O)c2cc(O)c(O)c([N+](=O)[O-])c2)cc1 [Tolcapone]	3.9	
Cc1c(Cl)cccc1Nc1ccccc1C(=O)O [Tolfenamic acid]	7.1	
COc1cccc(C2(O)CCCCC2CN(C)C)c1 (centres unmarked) [Tramadol]	263.8	
CC[C@]1(O)C[C@@H]2CN(CCc3c([nH]c4ccccc34)[C@@](C(=O)OC)(c3cc4c(cc3OC)N(C)[C@H]3[C@@](O)(C(=O)OC)[C@H](OC(C)=O)[C@]5(CC)C=CCN6CC[C@]43[C@@H]65)C2)C1 [Vinblastine]	25.7	
CCOC(=O)CN[C@@H](C(=O)N1CC[C@H]1C(=O)NCc1ccc(/C(N)=N\O)cc1)C1CCCCC1 [Ximelagatran]	535.7	
